These are literature values, as cited in paper PMC8261488, “Contraceptive progestins with androgenic properties stimulate breast epithelial cell proliferation” (EMBO Molecular Medicine, 2021).

The subject of this series is women. As to conditions: women taking androgenic progestins; ref Rossouw et al, 2002; cited from earlier work.

For `CC(=O)O[C@]1(C(C)=O)CC[C@H]2[C@@H]3C[C@H](C)C4=CC(=O)CC[C@]4(C)[C@H]3CC[C@@]21C` [MPA], the breast cancer risk entry was “elevated breast cancer risk”.
